According to article PMC7897990, “TriTOX: A novel Trichomonas vaginalis assay platform for high-throughput screening of compound libraries” (International Journal for Parasitology: Drugs and Drug …, 2021):
Read-outs that look alike come from different tables or passages of the source. Starred links: 1 amine or outer side, 2 acyl side, 3 side chain; linkers in the order of their positions; H or OH if unused. Positions of bridges follow the written chain, without caps; N, C: chain ends. Non-standard residues stand in square brackets, D forms with d. Residues, ends and D or L forms follow the SMILES beside them. *: point of attachment. hTyr(3S-OH,4S-OH,3'-OSO3H) = N[C@H](C(=O)O)[C@H](O)[C@@H](O)c1ccc(O)c(OS(=O)(=O)O)c1; Orn(4R-OH,5R-OH) = O=C([C@H](C[C@@H](O)[C@@H](O)N[*:3])N[*:1])[*:2]; Pro(3S-OH,4S-Me) = C[C@H]1CN[C@H](C(=O)O)[C@H]1O; Gln(3R-OH) = NC(=O)C[C@@H](O)[C@H](N)C(=O)O; Palmitoyl = CCCCCCCCCCCCCCCC(=O)*; Hyp = O=C(O)[C@@H]1C[C@@H](O)CN1

How the values were obtained:
[1] = tested on: Trichomonas vaginalis G3 trophozoites; conditions: for T.vaginalis_Absorbance_Rep1: replicate 1, raw absorbance; for T.vaginalis_Absorbance_Rep2: replicate 2, raw absorbance
[2] = tested on: nontumorigenic neonatal foreskin fibroblast (NFF) cell line
[3] = HTS, parasite screen at 1 µg/mL, replicate 1
[4] = HTS, parasite screen at 1 µg/mL
[5] = HTS, parasite screen at 1 µg/mL, replicate 2
[6] = HTS replicate 1, parasite screen 1 µg/mL
[7] = HTS replicate 2, parasite screen 1 µg/mL
[8] = NFF fibroblasts, single concentration 5 µg/mL
[9] = replicate 1, parasite screen at 1 µg/mL
[10] = replicate 2, parasite screen at 1 µg/mL
[11] = HTS single concentration, parasite screen 1 µg/mL, replicate 1
[12] = HTS single concentration, parasite screen 1 µg/mL, replicate 2
[13] = NFF_NS1 screen 5 µg/mL, single concentration
[14] = parasite screen at 1 µg/mL, replicate 1
[15] = parasite screen at 1 µg/mL, replicate 2
[16] = NFF_NS1 screen at 5 µg/mL, NFF cells

Molecule: CCCCCCCCCCCC(=O)N[C@H]1CCOC1=O [Dodecanoyl-L-homoserine lactone]
- T.vaginalis_%inb_Rep1 [1, 3]: 9.75%
- T.vaginalis_Absorbance_Rep1 [1, 4]: 0.89
- T.vaginalis_%inb_Rep2 [1, 5]: 12.87%
- T.vaginalis_Absorbance_Rep2 [1, 4]: 0.798
- NFF_Activity ([2]; NFF_NS1 screen at 5 µg/mL): I (otherwise these were reported as inactive (I))

Molecule: C[C@@]12CCC[C@@]34CCC[C@@H](C=C[C@H]1CC3)N42 [Porantherine]
- T.vaginalis_%inb_Rep1 [1, 6]: 9.49%
- T.vaginalis_%inb_Rep2 [1, 7]: 15.78%
- NFF_Activity [2, 8]: I (otherwise these were reported as inactive (I))

Molecule: Pladienolide B
- T.vaginalis_%inb_Rep1 [1, 6]: 11.92%
- T.vaginalis_%inb_Rep2 [1, 7]: 13.15%
- NFF_Activity [2, 8]: I (otherwise these were reported as inactive (I))

Molecule: COc1ccc2c3c([nH]c2c1)[C@H](C=C(C)C)N1C(=O)[C@@H]2CCCN2C(=O)[C@@H]1C3 [Fumitremorgin C]
- T.vaginalis_%inb_Rep1 [1, 3]: 12.68%
- T.vaginalis_Absorbance_Rep1 [1, 4]: 0.952
- T.vaginalis_%inb_Rep2 [1, 5]: 4.11%
- T.vaginalis_Absorbance_Rep2 [1, 4]: 0.699
- NFF_Activity ([2]; NFF_NS1 screen at 5 µg/mL): I (otherwise these were reported as inactive (I))

Molecule: CN1CCC2(c3cccc4c3NC3N(C)CCC43C34CCN(C)C3Nc3ccccc34)c3ccccc3NC12 (centres unmarked) [BIA-H1941]
- T.vaginalis_%inb_Rep1 [1, 9]: 7.39%
- T.vaginalis_%inb_Rep2 [1, 10]: 6.28%
- NFF_Activity ([2]; NFF cells, screen at 5 µg/mL): A (active (A) compounds having >25% inhibitory activity)

Molecule: CC[C@H](C)C(=O)O[C@H]1C[C@@H](C)C=C2C=C[C@H](C)[C@H](CC[C@@H]3C[C@@H](O)CC(=O)O3)[C@H]21 [BIA-L1264]
- T.vaginalis_%inb_Rep1 [1, 9]: 13.08%
- T.vaginalis_%inb_Rep2 [1, 10]: 12.64%
- NFF_Activity ([2]; NFF cells, screen at 5 µg/mL): A (active (A) compounds having >25% inhibitory activity)

Molecule: CC(=O)OC[C@]12CCC(C)=C[C@H]1O[C@@H]1[C@H](O)[C@@H](O)[C@@]2(C)[C@]12CO2 [BIA-A1982]
- T.vaginalis_%inb_Rep1 [1, 11]: 9.02%
- T.vaginalis_%inb_Rep2 [1, 12]: 12.13%
- NFF_Activity [2, 13]: A (active (A) compounds having >25% inhibitory activity)

Molecule: CC[C@H](C)[C@H]1O[C@]2(CC[C@@H]1C)C[C@@H]1C[C@@H](C/C=C(\C)[C@@H](O[C@H]3C[C@H](OC)[C@@H](O)[C@H](C)O3)[C@@H](C)/C=C/C=C3\CO[C@@H]4[C@H](O)C(C)=C[C@@H](C(=O)O1)[C@]34O)O2 [BIA-I1150]
- T.vaginalis_%inb_Rep1 [1, 9]: 15.62%
- T.vaginalis_%inb_Rep2 [1, 10]: 12.38%
- NFF_Activity ([2]; NFF cells, screen at 5 µg/mL): I (otherwise these were reported as inactive (I))

Molecule: CC[C@H]1/C=C/C=C/C[C@@H](C)[C@H](O)[C@@](C)(O)C(=O)[C@@H](C)[C@H](O)[C@@H](C)C(=O)[C@@H](C)[C@H](O)[C@@H](C)/C=C/C(=O)O[C@@H]2[C@H](C)[C@H](CC1)O[C@@]1(O[C@@H](C[C@@H](C)O)[C@@H](C)CC1=O)[C@H]2C [Oligomycin B]
- T.vaginalis_%inb_Rep1 [1, 6]: 12.98%
- T.vaginalis_%inb_Rep2 [1, 7]: 13.09%
- NFF_Activity [2, 8]: I (otherwise these were reported as inactive (I))

Molecule: CNC[C@@H]1CC[C@@H](N)[C@@H](O[C@H]2[C@H](O)[C@@H](O[C@H]3OC[C@](C)(O)[C@H](NC)[C@H]3O)[C@H](N)C[C@@H]2N)O1 [Gentamicin C2b]
- T.vaginalis_%inb_Rep1 [1, 3]: 11.00%
- T.vaginalis_Absorbance_Rep1 [1, 4]: 0.919
- T.vaginalis_%inb_Rep2 [1, 5]: 5.20%
- T.vaginalis_Absorbance_Rep2 [1, 4]: 0.716
- NFF_Activity ([2]; NFF_NS1 screen at 5 µg/mL): I (otherwise these were reported as inactive (I))

Molecule: Eprinomectin
- T.vaginalis_%inb_Rep1 [1, 3]: 12.49%
- T.vaginalis_Absorbance_Rep1 [1, 4]: 0.941
- T.vaginalis_%inb_Rep2 [1, 5]: 15.33%
- T.vaginalis_Absorbance_Rep2 [1, 4]: 0.832
- NFF_Activity ([2]; NFF_NS1 screen at 5 µg/mL): I (otherwise these were reported as inactive (I))

Molecule: CCCC[C@H]1C(=O)O[C@H](C)[C@H](NC(=O)c2cccc(NC=O)c2O)C(=O)O[C@@H](C)[C@@H]1OC(=O)CC(C)C [BIA-A1444]
- T.vaginalis_%inb_Rep1 [1, 11]: 12.87%
- T.vaginalis_%inb_Rep2 [1, 12]: 14.61%
- NFF_Activity [2, 13]: I (otherwise these were reported as inactive (I))

Molecule: Cc1c2c(c(O)c3c(O)ccc(Cl)c13)C(=O)[C@]1(O)C(O)=C(C(N)=O)C(=O)[C@@H](N(C)C)[C@@H]1C2.Cl [BIA-A1552]
- T.vaginalis_%inb_Rep1 [1, 11]: 13.30%
- T.vaginalis_%inb_Rep2 [1, 12]: 11.71%
- NFF_Activity [2, 13]: I (otherwise these were reported as inactive (I))

Molecule: CCCCCCCCCCC[C@@H](C[C@@H]1OC(=O)[C@H]1CCCCCC)OC(=O)[C@H](CC(C)C)NC=O [BIA-T1320]
- T.vaginalis_%inb_Rep1 [1, 14]: 10.91%
- T.vaginalis_%inb_Rep2 [1, 15]: 19.44%
- NFF_Activity [2, 16]: I (otherwise these were reported as inactive (I))

Molecule: CC(C=CC1OC(=O)C=CC1C)=CC(C)CC=CC(C)=CC(C)C(=O)C(C)C(O)C(C)CC(C)=CC(=O)O (centres unmarked) [BIA-L1045]
- T.vaginalis_%inb_Rep1 [1, 9]: 3.96%
- T.vaginalis_%inb_Rep2 [1, 10]: 1.86%
- NFF_Activity ([2]; NFF cells, screen at 5 µg/mL): A (active (A) compounds having >25% inhibitory activity)

Molecule: Fulvic acid
- T.vaginalis_%inb_Rep1 [1, 3]: 12.65%
- T.vaginalis_Absorbance_Rep1 [1, 4]: 0.944
- T.vaginalis_%inb_Rep2 [1, 5]: 4.34%
- T.vaginalis_Absorbance_Rep2 [1, 4]: 0.68
- NFF_Activity ([2]; NFF_NS1 screen at 5 µg/mL): I (otherwise these were reported as inactive (I))

Molecule: CC(=O)N[C@H]1CCOC1=O [BIA-A1493]
- T.vaginalis_%inb_Rep1 [1, 11]: 15.89%
- T.vaginalis_%inb_Rep2 [1, 12]: 26.61%
- NFF_Activity [2, 13]: I (otherwise these were reported as inactive (I))

Molecule: CC1C=CC=CC=CC=CC=CC=CC=CC(OC2OC(C)C(O)C(N)C2O)CC2OC(O)(CC(O)CC(O)C(O)CCC(O)CC(O)CC(=O)OC(C)C(C)C1O)CC(O)C2C(=O)O (centres unmarked) [BIA-A1441]
- T.vaginalis_%inb_Rep1 [1, 11]: 13.68%
- T.vaginalis_%inb_Rep2 [1, 12]: 14.03%
- NFF_Activity [2, 13]: I (otherwise these were reported as inactive (I))

Molecule: CC1(C)OC2CC(=O)OCC23C1CC(=O)C1(C)C3CCC2(C)C(c3ccoc3)OC(=O)C3OC321 (centres unmarked) [BIA-L1755]
- T.vaginalis_%inb_Rep1 [1, 9]: 11.46%
- T.vaginalis_%inb_Rep2 [1, 10]: 13.09%
- NFF_Activity ([2]; NFF cells, screen at 5 µg/mL): I (otherwise these were reported as inactive (I))

Molecule: CC(=O)NCCc1ccc(O)cc1 [BIA-A1731]
- T.vaginalis_%inb_Rep1 [1, 11]: 13.35%
- T.vaginalis_%inb_Rep2 [1, 12]: 10.05%
- NFF_Activity [2, 13]: I (otherwise these were reported as inactive (I))

Molecule: CC1=CC(O/C=C2\CCOC2=O)OC1=O (centres unmarked) [GR5]
- T.vaginalis_%inb_Rep1 [1, 3]: 9.60%
- T.vaginalis_Absorbance_Rep1 [1, 4]: 0.948
- T.vaginalis_%inb_Rep2 [1, 5]: 13.10%
- T.vaginalis_Absorbance_Rep2 [1, 4]: 0.852
- NFF_Activity ([2]; NFF_NS1 screen at 5 µg/mL): I (otherwise these were reported as inactive (I))

Molecule: C[C@@H]1C[C@H]2O[C@@H]2/C=C\C=C\C(=O)Cc2c(Cl)c(O)cc(O)c2C(=O)O1 [BIA-R1148]
- T.vaginalis_%inb_Rep1 [1, 14]: 12.83%
- T.vaginalis_%inb_Rep2 [1, 15]: 10.33%
- NFF_Activity [2, 16]: A (active (A) compounds having >25% inhibitory activity)

Molecule: CC1OC(OC2C(CO)OC(OC3C(CO)OC(O)C(O)C3O)C(O)C2O)C(O)C(O)C1NC1C=C(CO)C(O)C(O)C1O (centres unmarked) [BIA-A1231]
- T.vaginalis_%inb_Rep1 [1, 11]: 14.16%
- T.vaginalis_%inb_Rep2 [1, 12]: 6.22%
- NFF_Activity [2, 13]: I (otherwise these were reported as inactive (I))

Molecule: CCCCCCCCCCCCCCCC(=O)N[C@H]1C[C@@H](O)[C@@H](O)NC(=O)[C@@H]2[C@@H](O)[C@@H](C)CN2C(=O)[C@H]([C@H](O)CC(N)=O)NC(=O)[C@H]([C@H](O)[C@@H](O)c2ccc(O)c(OS(=O)(=O)O)c2)NC(=O)[C@@H]2C[C@@H](O)CN2C(=O)[C@H]([C@@H](C)O)NC1=O [FR 901379] (Palmitoyl-[Orn(4R-OH,5R-OH)]T[Hyp][hTyr(3S-OH,4S-OH,3'-OSO3H)][Gln(3R-OH)][Pro(3S-OH,4S-Me)]; lactam 1-C)
- T.vaginalis_%inb_Rep1 [1, 3]: 12.55%
- T.vaginalis_Absorbance_Rep1 [1, 4]: 0.942
- T.vaginalis_%inb_Rep2 [1, 5]: 13.45%
- T.vaginalis_Absorbance_Rep2 [1, 4]: 0.806
- NFF_Activity ([2]; NFF_NS1 screen at 5 µg/mL): I (otherwise these were reported as inactive (I))
